# Test results taken from patent US20240174618A1, “SUBSTITUTED (2-HETEROARYLOXYPHENYL)SULFONATES, SALTS THEREOF AND THEIR USE AS HERBICIDAL AGENTS” (Bayer Aktiengesellschaft, priority 2021, published 2024).
# Key:
# Type in all cases: in vivo
# [1] = tested on: Setaria viridis (SETVI); test: A. Herbicidal pre-emergence efficacy, SETVI
# Summary of the method: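 Pre-emergence soil-surface spray in sandy loam pots, WP/EC in water plus 0.5% additive, 600 L/ha. Visual % damage rating after about 3 weeks in greenhouse vs. untreated; 0% = control-like, 100% = dead plants. Rates up to 1280 g/ha.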
# [2] = tested on: Abutilon theophrasti (ABUTH); test: B. Herbicidal post-emergence efficacy, ABUTH; details: rated visually after about 3 weeks
# Summary of the method: (§1)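 First, seeds were sown in sandy loam and grown 2 to 3 weeks under controlled greenhouse conditions. Next, foliage at the one-leaf stage received the formulated compound in water with 0.5% additive (600 L/ha, 1280 g/ha or less). Finally, damage was rated visually after about 3 weeks against untreated plants.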
# [3] = tested on: Amaranthus retroflexus (AMARE); test: B. Herbicidal post-emergence efficacy, AMARE
# Summary of the method: as §1
# [4] = tested on: Triticum aestivum (TRZAS); test: D. Pre-emergence effect on useful plants, TRZAS; details: useful plant
# From the text: (§2) Seeds of monocotyledonous and dicotyledonous weed plants and crop plants were placed in plastic or organic planting pots and covered with soil. The compounds of the invention, formulated in the form of wettable powders (WP) or as emulsion concentrates (EC), were then applied to the surface of the covering soil as aqueous suspension or emulsion with addition of 0.5% additive at a water application rate equivalent to 600 l/ha (converted). After the treatment, the pots were placed in a greenhouse and kept under good growth conditions for the test plants. After about 3 weeks, the efficacy of the preparations was scored visually in comparison with untreated controls as percentages. For example, • 100% efficacy=plants have died, • 0% efficacy=like untreated control plants.
# Tables D1a to D5b below show the effects of selected compounds of the general formula (I) according to table 1 on various useful plants at an application rate corresponding to 320 g/ha or less, which were obtained by the experimental procedure mentioned above.
# [5] = tested on: Polygonum convolvulus (POLCO); test: C. Herbicidal pre-emergence efficacy, POLCO; details: scored after about 3 weeks
# From the text: as §2
# (§3) Tables C1a to C14b below show the effects of selected compounds of the general formula (I) according to table 1 on various harmful plants at an application rate corresponding to 320 g/ha or less, which were obtained by the experimental procedure mentioned above.
# [6] = tested on: Triticum aestivum (TRZAS); test: F. Post-emergence effect on useful plants, TRZAS; details: useful plant
# Summary of the method: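 Crop plants grown in sandy loam in the greenhouse were sprayed at the one-leaf stage, 2-3 weeks after sowing, with WP or EC formulations plus 0.5% additive at 600 l/ha water. Damage was scored visually after about 3 weeks against untreated controls (0% = like control, 100% = dead).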
# [7] = tested on: Abutilon theophrasti (ABUTH); test: C. Herbicidal pre-emergence efficacy, ABUTH; details: scored after about 3 weeks
# From the text: as §2, §3
Pre-emergence efficacy against TRZAS in % ([4]; application rate 80 g/ha) [%],Pre-emergence efficacy against TRZAS in % ([4]; application rate 320 g/ha) [%],Post-emergence efficacy against TRZAS in % ([6]; application rate 80 g/ha) [%],Post-emergence efficacy against TRZAS in % ([6]; application rate 320 g/ha) [%],Structure (SMILES),Pre-emergence efficacy against SETVI ([1]; dosage 320 g/ha) [%],Pre-emergence efficacy against SETVI ([1]; dosage 1280 g/ha) [%],Post-emergence efficacy against ABUTH in % ([2]; 80 g/ha) [%],Post-emergence efficacy against ABUTH in % ([2]; 320 g/ha) [%],Post-emergence efficacy against ABUTH in % ([2]; 1280 g/ha) [%],Post-emergence efficacy against AMARE ([3]; 80 g/ha) [%],Post-emergence efficacy against AMARE ([3]; 320 g/ha) [%],Post-emergence efficacy against AMARE ([3]; 1280 g/ha) [%],Pre-emergence efficacy against POLCO ([5]; 320 g/ha) [%],Pre-emergence efficacy against ABUTH ([7]; 80 g/ha) [%],Pre-emergence efficacy against ABUTH ([7]; 320 g/ha) [%],Pre-emergence efficacy against SETVI ([1]; dosage 80 g/ha) [%],Pre-emergence efficacy against POLCO ([5]; 80 g/ha) [%]
0,10,0,20,O=S(=O)(CCC(F)(F)F)Oc1c(Cl)cccc1Oc1ncc(Br)cn1 [Example I-32],90,100,100,100,100,100,100,100,100,90,100,,
0,0,0,0,C=CCS(=O)(=O)Oc1ccccc1Oc1ncc(Cl)cn1 [Example I-36],,100,,,,,90,100,90,,90,,
0,10,20,20,O=S(=O)(CCCC(F)(F)C(F)(F)F)Oc1c(F)cccc1Oc1ncc(Cl)cn1 [Example I-68],100,100,100,100,100,100,100,100,90,100,100,90,90
0,,0,0,Cc1cccc(OS(=O)(=O)CCCCl)c1Oc1ncc(Cl)cn1 [Example I-12],100,100,,,,,90,100,,80,90,,
0,,0,0,O=S(=O)(CCC(F)(F)F)Oc1c(Br)cccc1Oc1ncc(F)cn1 [Example I-43],100,100,,90,100,,,,90,80,100,,90

# More lines, now with the values behind:
Structure (SMILES),Pre-emergence efficacy against TRZAS in % ([4]; application rate 80 g/ha) [%],Pre-emergence efficacy against TRZAS in % ([4]; application rate 320 g/ha) [%],Post-emergence efficacy against TRZAS in % ([6]; application rate 80 g/ha) [%],Post-emergence efficacy against TRZAS in % ([6]; application rate 320 g/ha) [%],Pre-emergence efficacy against SETVI ([1]; dosage 320 g/ha) [%],Pre-emergence efficacy against SETVI ([1]; dosage 1280 g/ha) [%],Post-emergence efficacy against ABUTH in % ([2]; 80 g/ha) [%],Post-emergence efficacy against ABUTH in % ([2]; 320 g/ha) [%],Post-emergence efficacy against ABUTH in % ([2]; 1280 g/ha) [%],Post-emergence efficacy against AMARE ([3]; 80 g/ha) [%],Post-emergence efficacy against AMARE ([3]; 320 g/ha) [%],Post-emergence efficacy against AMARE ([3]; 1280 g/ha) [%],Pre-emergence efficacy against POLCO ([5]; 320 g/ha) [%],Pre-emergence efficacy against ABUTH ([7]; 80 g/ha) [%],Pre-emergence efficacy against ABUTH ([7]; 320 g/ha) [%],Pre-emergence efficacy against SETVI ([1]; dosage 80 g/ha) [%],Pre-emergence efficacy against POLCO ([5]; 80 g/ha) [%]
Cc1cccc(Oc2ncc(Cl)cn2)c1OS(=O)(=O)CCC(F)(F)F [Example I-29],,,,,100,100,90,100,100,90,100,100,,,,,
O=S(=O)(CCCC(F)(F)F)Oc1c(Br)cccc1Oc1ncc(Cl)cn1 [Example I-30],,,,,100,100,90,90,100,100,100,100,,,,90,
"Cc1cccc(Oc2ncc(Cl)cn2)c1OS(=O)(=O)CCCC(F)(F)F [Example I-28, 2-[(5-Chloropyrimidin-2-yl)oxy]-6-methylphenyl 4,4,4-trifluorobutane-1-sulfonate]",,,,,100,100,,100,100,,90,100,,,,100,
